Test results taken from patent publication US20230192705A1, “SHP2 INHIBITORS, COMPOSITIONS AND USES THEREOF” (Betta Pharmaceuticals Co., Ltd, priority 2020, published 2023).
pIC50: −log10 of the molar value.

Target: T1, SHP2 (Homo sapiens, UniProt Q06124)
T1 sequence (Q06124 1-593): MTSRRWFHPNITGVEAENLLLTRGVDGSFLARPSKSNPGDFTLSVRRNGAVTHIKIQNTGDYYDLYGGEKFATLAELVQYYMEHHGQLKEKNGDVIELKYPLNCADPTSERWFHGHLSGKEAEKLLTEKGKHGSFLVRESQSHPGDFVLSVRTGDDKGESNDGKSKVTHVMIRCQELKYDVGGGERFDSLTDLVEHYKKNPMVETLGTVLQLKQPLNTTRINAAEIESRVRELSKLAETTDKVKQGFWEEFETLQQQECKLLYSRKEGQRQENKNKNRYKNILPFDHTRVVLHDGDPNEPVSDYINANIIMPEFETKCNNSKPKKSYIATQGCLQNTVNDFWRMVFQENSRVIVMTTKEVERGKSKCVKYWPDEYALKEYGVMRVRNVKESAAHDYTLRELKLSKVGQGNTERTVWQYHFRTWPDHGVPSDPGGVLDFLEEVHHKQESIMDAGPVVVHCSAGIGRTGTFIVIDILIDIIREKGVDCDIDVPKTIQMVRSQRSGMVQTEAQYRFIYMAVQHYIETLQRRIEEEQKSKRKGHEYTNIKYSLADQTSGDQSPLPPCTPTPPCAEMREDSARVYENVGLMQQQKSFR
Assay: SHP2 allosteric inhibitor enzyme activity assay (DiFMUP fluorescence)
Type: biochemical
Details: class symbols
How it was run: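 SHP2 activated by 0.5 μM IRS1_pY1172(dPEG8)pY1222 peptide, 0.2 ng enzyme per well, 1 h at room temperature with compound (1 μM top, 3-fold series), then DiFMUP substrate 1 h. Buffer: 60 mM HEPES, 75 mM NaCl, 75 mM KCl, 0.05% BRIJ-35, 1 mM EDTA, 5 mM DTT. Fluorescence ex 340/em 450 nm; IC50 by variable-slope fit.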

SMILES | pIC50
COc1cc(C2(c3n[nH]c4nc(N5CCC6(CC5)CO[C@@H](C)[C@H]6N)[nH]c(=O)c34)CC2)ccc1F [Example 289, 6-((3S,4S)-4-amino-3-methyl-2-oxa-8-azaspiro[4.5]decan-8-yl)-3-(1-(4-fluoro-3-methoxyphenyl)cyclopropyl)-1,5-dihydro-4H-pyrazolo[3,4-d]pyrimidin-4-one] | < 7.22
C[C@@H]1OCC2(CCN(c3nc4[nH]nc(C5(c6cccc(C#N)c6)CC5)c4c(=O)[nH]3)CC2)[C@@H]1N [Example 290, 3-(1-(6-((3S,4S)-4-amino-3-methyl-2-oxa-8-azaspiro[4.5]decan-8-yl)-4-oxo-4,5-dihydro-1H-pyrazolo[3,4-d]pyrimidin-3-yl)cyclopropyl)benzonitrile] | 7.22 to 7.70
C[C@@H]1OCC2(CCN(c3nc4[nH]nc(C5(c6ccnc(N)c6Cl)CC5)c4c(=O)[nH]3)CC2)[C@@H]1N [Example 291, 3-(1-(2-amino-3-chloropyridin-4-yl)cyclopropyl)-6-((3S,4S)-4-amino-3-methyl-2-oxa-8-azaspiro[4.5]decan-8-yl)-1,5-dihydro-4H-pyrazolo[3,4-d]pyrimidin-4-one] | 7.22 to 7.70
C[C@@H]1OCC2(CCN(c3nc4[nH]nc(C5(c6ccc(F)cc6)CC5)c4c(=O)[nH]3)CC2)[C@@H]1N [Example 292, 6-((3S,4S)-4-amino-3-methyl-2-oxa-8-azaspiro[4.5]decan-8-yl)-3-(1-(4-fluorophenyl)cyclopropyl)-1,5-dihydro-4H-pyrazolo[3,4-d]pyrimidin-4-one] | 7.22 to 7.70
C[C@@H]1OCC2(CCN(c3nc4[nH]nc(C5(c6cccc(F)c6)CC5)c4c(=O)[nH]3)CC2)[C@@H]1N [Example 293, 6-((3S,4S)-4-amino-3-methyl-2-oxa-8-azaspiro[4.5]decan-8-yl)-3-(1-(3-fluorophenyl)cyclopropyl)-1,5-dihydro-4H-pyrazolo[3,4-d]pyrimidin-4-one] | 7.22 to 7.70
C[C@@H]1OCC2(CCN(c3nc4[nH]nc(C5(c6ccccc6F)CC5)c4c(=O)[nH]3)CC2)[C@@H]1N [Example 294, 6-((3S,4S)-4-amino-3-methyl-2-oxa-8-azaspiro[4.5]decan-8-yl)-3-(1-(2-fluorophenyl)cyclopropyl)-1,5-dihydro-4H-pyrazolo[3,4-d]pyrimidin-4-one] | 7.22 to 7.70
C[C@@H]1OCC2(CCN(c3nc4[nH]nc(C5(c6ccc(F)c(F)c6)CC5)c4c(=O)[nH]3)CC2)[C@@H]1N [Example 295, 6-((3S,4S)-4-amino-3-methyl-2-oxa-8-azaspiro[4.5]decan-8-yl)-3-(1-(3,4-difluorophenyl)cyclopropyl)-1,5-dihydro-4H-pyrazolo[3,4-d]pyrimidin-4-one] | 7.22 to 7.70
C[C@@H]1OCC2(CCN(c3nc4[nH]nc(C5(c6ccc(C(F)(F)F)cc6)CC5)c4c(=O)[nH]3)CC2)[C@@H]1N [Example 296, 6-((3S,4S)-4-amino-3-methyl-2-oxa-8-azaspiro[4.5]decan-8-yl)-3-(1-(4-(trifluoromethyl)phenyl)cyclopropyl)-1,5-dihydro-4H-pyrazolo[3,4-d]pyrimidin-4-one] | < 7.22
C[C@@H]1OCC2(CCN(c3nc4[nH]nc(C5(c6cccc(C(F)(F)F)c6)CC5)c4c(=O)[nH]3)CC2)[C@@H]1N [Example 297, 6-((3S,4S)-4-amino-3-methyl-2-oxa-8-azaspiro[4.5]decan-8-yl)-3-(1-(3-(trifluoromethyl)phenyl)cyclopropyl)-1,5-dihydro-4H-pyrazolo[3,4-d]pyrimidin-4-one] | 7.22 to 7.70
C[C@@H]1OCC2(CCN(c3nc4[nH]nc(C5(c6ccccc6C(F)(F)F)CC5)c4c(=O)[nH]3)CC2)[C@@H]1N [Example 298, 6-((3S,4S)-4-amino-3-methyl-2-oxa-8-azaspiro[4.5]decan-8-yl)-3-(1-(2-(trifluoromethyl)phenyl)cyclopropyl)-1,5-dihydro-4H-pyrazolo[3,4-d]pyrimidin-4-one] | < 7.22
